Assay results taken from patent publication US20200022370A1, “MICROBIOCIDAL OXADIAZOLE DERIVATIVES” (SYNGENTA PARTICIPATIONS AG, priority 2016, published 2020).

Experiments:
[1] = system: Puccinia recondita f. Sp. Tritici; test: Puccinia recondita f. sp. tritici / wheat / leaf disc preventative (brown rust); assay type: in vivo; settings: foliar, 200 ppm in the applied formulation, wheat leaf segments cv. Kanzler, inoculated 1 day after application, vs untreated, 7 to 9 days after application, read-out: disease control
Experimental: (§1) Leaf disks or leaf segments of various plant species are cut from plants grown in a greenhouse. The cut leaf disks or segments are placed in multiwell plates (24-well format) onto water agar. The leaf disks are sprayed with a test solution before (preventative) or after (curative) inoculation. Compounds to be tested are prepared as DMSO solutions (max. 10 mg/ml) which are diluted to the appropriate concentration with 0.025% Tween20 just before spraying. The inoculated leaf disks or segments are incubated under defined conditions (temperature, relative humidity, light, etc.) according to the respective test system. A single evaluation of disease level is carried out 3 to 14 days after inoculation, depending on the pathosystem. Percent disease control relative to the untreated check leaf disks or segments is then calculated.
Example 1: Fungicidal Activity Against Puccinia recondita f. Sp. Tritici/Wheat/Leaf Disc Preventative (Brown Rust)
Wheat leaf segments cv. Kanzler were placed on agar in multiwell plates (24-well format) and sprayed with the Formulated test compound diluted in water. The leaf disks were inoculated with a spore suspension of the fungus 1 day after application. The inoculated leaf segments were incubated at 19° C. and 75% relative humidity (rh) under a light regime of 12 hours light/12 hours darkness in a climate cabinet and the activity of a compound was assessed as percent disease control compared to untreated when an appropriate level of disease damage appears in untreated check leaf segments (7 to 9 days after application).
(§2) The following compounds at 200 ppm in the applied Formulation give at least 80% disease control in this test when compared to untreated control leaf disks under the same conditions, which show extensive disease development.

Phakopsora pachyrhizi = Phakopsora pachyrhizi / soybean / leaf disc preventative (Asian soybean rust); assay type: in vivo; settings: foliar, 200 ppm in the applied formulation, soybean leaf disks, inoculated one day after application, vs untreated, 12 to 14 days after application, read-out: disease control
Experimental: as §1
Example 3: Fungicidal Activity Against Phakopsora pachyrhizi/Soybean/Leaf Disc Preventative (Asian Soybean Rust)
Soybean leaf disks are placed on water agar in multiwell plates (24-well format) and sprayed with the Formulated test compound diluted in water. One day after application leaf discs are inoculated by spraying a spore suspension on the lower leaf surface. After an incubation period in a climate cabinet of 24-36 hours in darkness at 20° C. and 75% rh leaf disc are kept at 20° C. with 12 h light/day and 75% rh. The activity of a compound is assessed as percent disease control compared to untreated when an appropriate level of disease damage appears in untreated check leaf disks (12 to 14 days after application).
as §2

[2] = system: Glomerella lacenarium (Colletotrichum lacenarium); test: Glomerella lacenarium (Colletotrichum lacenarium) liquid culture / cucumber / preventative (anthracnose); assay type: cell-based; settings: 20 ppm, liquid culture in PDB, 24° C., inhibition of growth measured photometrically 3 to 4 days after application, vs untreated, read-out: disease control
Experimental: Mycelia fragments or conidia suspensions of a fungus prepared either freshly from liquid cultures of the fungus or from cryogenic storage, are directly mixed into nutrient broth. DMSO solutions of the test compound (max. 10 mg/ml) are diluted with 0.025% Tween20 by a factor of 50 and 10 μl of this solution is pipetted into a microtiter plate (96-well format). The nutrient broth containing the fungal spores/mycelia fragments is then added to give an end concentration of the tested compound. The test plates are incubated in the dark at 24° C. and 96% relative humidity. The inhibition of fungal growth is determined photometrically after 2 to 7 days, depending on the pathosystem, and percent antifungal activity relative to the untreated check is calculated.
Example 4: Fungicidal Activity Against Glomerella lacenarium (Colletotrichum lacenarium) Liquid Culture/Cucumber/Preventative (Anthracnose)
Conidia of the fungus from cryogenic storage are directly mixed into nutrient broth (PDB-potato dextrose broth). After placing a (DMSO) solution of test compound into a microtiter plate (96-well format), the nutrient broth containing the fungal spores is added. The test plates are incubated at 24° C. and the inhibition of growth is measured photometrically 3 to 4 days after application.
The following compounds at 20 ppm in the applied Formulation give at least 80% disease control in this test when compared to untreated control under the same conditions, which show extensive disease development.

[3] = system: Puccinia recondita f. Sp. Tritici; test: Puccinia recondita f. sp. tritici / wheat / leaf disc curative (brown rust); assay type: in vivo; settings: foliar, 200 ppm in the applied formulation, wheat leaf segments cv. Kanzler, compound applied 1 day after inoculation, vs untreated, 6 to 8 days after application, read-out: disease control
Experimental: as §1
Example 2: Fungicidal Activity Against Puccinia recondita f. sp. tritici/Wheat/Leaf Disc Curative (Brown Rust)
Wheat leaf segments cv. Kanzler are placed on agar in multiwell plates (24-well format). The leaf segments are then inoculated with a spore suspension of the fungus. Plates were stored in darkness at 19° C. and 75% relative humidity. The Formulated test compound diluted in water was applied 1 day after inoculation. The leaf segments were incubated at 19° C. and 75% relative humidity under a light regime of 12 hours light/12 hours darkness in a climate cabinet and the activity of a compound was assessed as percent disease control compared to untreated when an appropriate level of disease damage appears in untreated check leaf segments (6 to 8 days after application).
as §2

COc1ccc(CC(=O)Nc2ccc(-c3noc(C(F)(F)F)n3)cc2)cc1 [Compound 1.71, 2-(4-methoxyphenyl)-N-[4-[5-(trifluoromethyl)-1,2,4-oxadiazol-3-yl]phenyl]acetamide]
≥ 80%: pest or weed control at 200 ppm [1] | pest or weed control at 200 ppm (Phakopsora pachyrhizi) | inhibition of growth at 20 ppm [2]

O=C(Nc1ccc(-c2noc(C(F)(F)F)n2)cc1)C1CCCCO1 (stereo not drawn) [Compound 1.72, N-[4-[5-(trifluoromethyl)-1,2,4-oxadiazol-3-yl]phenyl] tetrahydropyran-2-carboxamide]
≥ 80%: pest or weed control at 200 ppm [1] | pest or weed control at 200 ppm (Phakopsora pachyrhizi) | inhibition of growth at 20 ppm [2]

O=C(CCO)Nc1ccc(-c2noc(C(F)(F)F)n2)cc1 [Compound 1.75, 3-hydroxy-N-[4-[5-(trifluoromethyl)-1,2,4-oxadiazol-3-yl]phenyl] propanamide]
≥ 80%: pest or weed control at 200 ppm [1] | pest or weed control at 200 ppm [3] | inhibition of growth at 20 ppm [2]

CSCC(C)C(=O)Nc1ccc(-c2noc(C(F)(F)F)n2)cc1 (stereo not drawn) [Compound 1.77, 2-methyl-3-methylsulfanyl-N-[4-[5-(trifluoromethyl)-1,2,4-oxadiazol-3-yl]phenyl] propanamide]
≥ 80%: pest or weed control at 200 ppm [1] | pest or weed control at 200 ppm [3] | inhibition of growth at 20 ppm [2]

CC(C)CC(=O)Nc1ccc(-c2noc(C(F)(F)F)n2)cc1 [Compound 1.85, 3-methyl-N-[4-[5-(trifluoromethyl)-1,2,4-oxadiazol-3-yl]phenyl]butanamide]
≥ 80%: pest or weed control at 200 ppm [1] | pest or weed control at 200 ppm (Phakopsora pachyrhizi) | inhibition of growth at 20 ppm [2]

CCCC(C)C(=O)Nc1ccc(-c2noc(C(F)(F)F)n2)cc1 (stereo not drawn) [Compound 1.86, 2-methyl-N-[4-[5-(trifluoromethyl)-1,2,4-oxadiazol-3-yl]phenyl] pentanamide]
≥ 80%: pest or weed control at 200 ppm [1] | pest or weed control at 200 ppm (Phakopsora pachyrhizi) | inhibition of growth at 20 ppm [2]

Cc1ccnn1CC(=O)Nc1ccc(-c2noc(C(F)(F)F)n2)cc1 [Compound 1.87, 2-(5-methylpyrazol-1-yl)-N-[4-[5-(trifluoromethyl)-1,2,4-oxadiazol-3-yl]phenyl]acetamide]
≥ 80%: pest or weed control at 200 ppm [1] | pest or weed control at 200 ppm [3] | inhibition of growth at 20 ppm [2]

CC1CC1C(=O)Nc1ccc(-c2noc(C(F)(F)F)n2)cc1 (stereo not drawn) [Compound 1.90, 2-methyl-N-[4-[5-(trifluoromethyl)-1,2,4-oxadiazol-3-yl]phenyl]cyclo-propanecarboxamide]
≥ 80%: pest or weed control at 200 ppm [1] | pest or weed control at 200 ppm (Phakopsora pachyrhizi) | inhibition of growth at 20 ppm [2]

CCCCC(=O)Nc1ccc(-c2noc(C(F)(F)F)n2)cc1 [Compound 1.92, N-[4-[5-(trifluoromethyl)-1,2,4-oxadiazol-3-yl]phenyl]pentanamide]
≥ 80%: pest or weed control at 200 ppm [1] | pest or weed control at 200 ppm (Phakopsora pachyrhizi) | inhibition of growth at 20 ppm [2]

CC(C)OCC(=O)Nc1ccc(-c2noc(C(F)(F)F)n2)cc1 [Compound 1.101, 2-isopropoxy-N-[4-[5-(trifluoromethyl)-1,2,4-oxadiazol-3-yl]phenyl]acetamide]
≥ 80%: pest or weed control at 200 ppm [1] | pest or weed control at 200 ppm [3] | inhibition of growth at 20 ppm [2]

O=C(Cn1cccn1)Nc1ccc(-c2noc(C(F)(F)F)n2)cc1 [Compound 1.104, 2-pyrazol-1-yl-N-[4-[5-(trifluoromethyl)-1,2,4-oxadiazol-3-yl]phenyl]acetamide]
≥ 80%: pest or weed control at 200 ppm [1] | pest or weed control at 200 ppm [3] | inhibition of growth at 20 ppm [2]

O=C(CCc1ccncc1)Nc1ccc(-c2noc(C(F)(F)F)n2)cc1 [Compound 1.107, 3-(4-pyridyl)-N-[4-[5-(trifluoromethyl)-1,2,4-oxadiazol-3-yl]phenyl] propanamide]
≥ 80%: pest or weed control at 200 ppm [1] | pest or weed control at 200 ppm [3] | inhibition of growth at 20 ppm [2]

O=C(Nc1ccc(-c2noc(C(F)(F)F)n2)cc1)C1CCOC1 (stereo not drawn) [Compound 1.116, N-[4-[5-(trifluoromethyl)-1,2,4-oxadiazol-3-yl]phenyl] tetrahydrofuran-3-carboxamide]
≥ 80%: pest or weed control at 200 ppm [1] | pest or weed control at 200 ppm [3] | inhibition of growth at 20 ppm [2]

O=C(Nc1ccc(-c2noc(C(F)(F)F)n2)cc1)C1CC1(F)F (stereo not drawn) [Compound 1.118, 2,2-difluoro-N-[4-[5-(trifluoromethyl)-1,2,4-oxadiazol-3-yl]phenyl]cyclo-propanecarboxamide]
≥ 80%: pest or weed control at 200 ppm [1] | pest or weed control at 200 ppm (Phakopsora pachyrhizi) | inhibition of growth at 20 ppm [2]

O=C(CC1CC1(F)F)Nc1ccc(-c2noc(C(F)(F)F)n2)cc1 (stereo not drawn) [Compound 1.124, 2-(2,2-difluorocyclopropyl)-N-[4-[5-(trifluoromethyl)-1,2,4-oxadiazol-3-yl]phenyl]acetamide]
≥ 80%: pest or weed control at 200 ppm [1] | pest or weed control at 200 ppm (Phakopsora pachyrhizi) | inhibition of growth at 20 ppm [2]

O=C(CC(F)(F)F)Nc1ccc(-c2noc(C(F)(F)F)n2)cc1 [Compound 1.125, 3,3,3-trifluoro-N-[4-[5-(trifluoromethyl)-1,2,4-oxadiazol-3-yl]phenyl] propanamide]
≥ 80%: pest or weed control at 200 ppm [1] | pest or weed control at 200 ppm (Phakopsora pachyrhizi) | inhibition of growth at 20 ppm [2]

CON(C)C(=O)N(C)c1ccc(-c2noc(C(F)(F)F)n2)cc1 [Compound 1.126, 1-methoxy-1,3-dimethyl-3-[4-[5-(trifluoromethyl)-1,2,4-oxadiazol-3-yl]phenyl]urea]
≥ 80%: pest or weed control at 200 ppm [1] | pest or weed control at 200 ppm [3] | inhibition of growth at 20 ppm [2]

COCC(=O)N(C)c1ccc(-c2noc(C(F)(F)F)n2)cc1 [Compound 1.129, 2-methoxy-N-methyl-N-[4-[5-(trifluoromethyl)-1,2,4-oxadiazol-3-yl]phenyl]acetamide]
≥ 80%: pest or weed control at 200 ppm [1] | pest or weed control at 200 ppm [3] | inhibition of growth at 20 ppm [2]

CC1(C(=O)Nc2ccc(-c3noc(C(F)(F)F)n3)cc2)CC1 [Compound 2.11, 1-methyl-N-[4-[5-(trifluoromethyl)-1,2,4-oxadiazol-3-yl]phenyl] cyclopropane-carboxamide]
≥ 80%: pest or weed control at 200 ppm [1] | pest or weed control at 200 ppm (Phakopsora pachyrhizi) | inhibition of growth at 20 ppm [2]

O=C(Nc1ccc(-c2noc(C(F)(F)F)n2)cc1)C1CC1 [Compound 2.15, N-[4-[5-(trifluoromethyl)-1,2,4-oxadiazol-3-yl]phenyl] cyclopropane-carboxamide]
≥ 80%: pest or weed control at 200 ppm [1] | pest or weed control at 200 ppm [3] | inhibition of growth at 20 ppm [2]

CC(=O)N(C)c1ccc(-c2noc(C(F)(F)F)n2)cc1 [Compound 2.18, N-methyl-N-[4-[5-(trifluoromethyl)-1,2,4-oxadiazol-3-yl]phenyl] acetamide]
≥ 80%: pest or weed control at 200 ppm [1] | pest or weed control at 200 ppm [3] | inhibition of growth at 20 ppm [2]
